The values below are quoted from earlier work in patent US12473324B2, “Triazine-based amphiphilic compound and use thereof” (INDUSTRY-UNIVERSITY COOPERATION FOUNDATION HANYANG …, priority 2019, dated 2025).

The data set deals with μ-opioid receptor (MOR) (Mus musculus, UniProt P42866). Conditions: LMNG not among the compounds of the described test; cited from earlier work.
Chain of μ-opioid receptor (MOR) (P42866 whole entry): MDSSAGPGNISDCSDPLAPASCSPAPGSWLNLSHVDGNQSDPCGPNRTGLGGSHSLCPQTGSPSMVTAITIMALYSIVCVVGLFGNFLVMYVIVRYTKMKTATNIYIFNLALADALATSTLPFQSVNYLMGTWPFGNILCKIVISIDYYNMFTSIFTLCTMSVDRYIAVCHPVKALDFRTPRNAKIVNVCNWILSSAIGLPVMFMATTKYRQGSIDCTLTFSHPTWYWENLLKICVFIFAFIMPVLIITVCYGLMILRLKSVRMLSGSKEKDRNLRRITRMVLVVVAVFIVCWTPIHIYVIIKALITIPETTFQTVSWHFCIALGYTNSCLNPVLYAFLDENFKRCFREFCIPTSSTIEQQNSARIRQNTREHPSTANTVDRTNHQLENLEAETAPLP

Turning to `CCCCCCCCCCC(CCCCCCCCCC)(CO[C@@H]1O[C@H](CO)[C@@H](O[C@H]2O[C@H](CO)[C@@H](O)[C@H](O)[C@H]2O)[C@H](O)[C@H]1O)CO[C@@H]1O[C@H](CO)[C@@H](O[C@H]2O[C@H](CO)[C@@H](O)[C@H](O)[C@H]2O)[C@H](O)[C@H]1O` [LMNG], the “MOR melting point (Tm) of LMNG, comparison value” is 38.3 °C.
